These results are taken from a melting point compilation (Tetko et al.; mined from patent text by program, amines drawn as free bases though some values may be those of a salt).

SMILES strings stand for the structures.

In general, melting point refers to the temperature of the solid-liquid transition. As for `CC(C)n1c(CC[C@@H](O)C[C@@H](O)CC(=O)OC(C)(C)C)c(-c2ccc(F)cc2)c(-c2ccccc2)c1C(N)=O`, the melting point is 94 to 96 °C.

In the case of `CC(C(N)=O)c1ccc2c(c1)CCc1ccccc1S2` (stereo not given), the melting point was in the range of 135 to 136 °C.

For the compound `CC(C)(C)OCCOc1cc(NC(=O)OC(C)(C)C)c(NC(=O)CC(=O)c2cccc(-n3ccnc3)c2)cc1C#Cc1ccc(F)cc1`, the melting point was in the range of 62 to 65 °C.

The compound `Cc1cnc2c(S(=O)(=O)N[C@@H](CCCc3cn(C(c4ccccc4)(c4ccccc4)c4ccccc4)cn3)C(=O)O)cccc2c1` yielded a melting point of 170 °C.

`N#Cc1ccc(OCCCCCCCCCCCCOc2ccc(C#N)c(C#N)c2)cc1C#N` yielded a melting point of 104 to 107 °C.

The compound `COC(=O)c1cc(OCCOc2cccc3ccccc23)cc(OCCOc2cccc3ccccc23)c1` had a melting point of 132 to 137 °C.

The compound `O=C(NNC(=O)c1ccccc1C(F)(F)F)c1ccccc1F` registered a melting point of 171 to 173 °C.

Compound `O=C1C2C[C@H](O)CN2C(=O)N1c1ccc([N+](=O)[O-])c2ccccc12` (stereo not given in full) registered a melting point of 246 to 248 °C.

As for `COC(=O)c1ccn2c1C(C(=O)OC)CCC2` (stereo not given), the melting point turned out to be 108 °C.

`CC1(C)CN(Cc2ccccc2[N+](=O)[O-])C(=O)S1` came in with a melting point of 128 to 129 °C.

In the case of `CC(=O)OCCNC(=O)NCc1ccc(-c2csc(N=C(N)N)n2)o1`, the melting point is 200 to 202 °C.

In the case of `CCCCCCCCCCc1ccc(CO)cc1`, the melting point was in the range of 39 to 40 °C.

The compound `CC(=O)Nc1ccc(I)cc1F` yielded a melting point of 152 to 154 °C.

`COc1ccc(Br)cc1S(=O)(=O)NC(C)(C)CO`: the melting point turned out to be 168 °C.

`Cc1sc(-c2ccccc2)nc1-c1ccc(Cl)cc1`: the melting point lay within 90 to 91 °C.

As for `CCOC(=O)c1cn(C2CC2)c2nc(S(=O)(=O)c3ccc(C)cc3)c(F)cc2c1=O`, the melting point fell in the range of 216 to 218 °C.

On to `CCCCCCCC(=O)N(C)Cc1cccc(-c2ccc(CC3SC(=O)NC3=O)cc2C)c1` (stereo not given), for which the melting point was determined as 130 °C.

Take `CN1CCN(Cc2ccc(NC(=O)N3CCCc4cc(Oc5ccnc(N)n5)ccc43)cc2C(F)(F)F)CC1`: the melting point is 120 to 123 °C.

On to `CCC(=O)C(CCCCCCOc1ccc(OCc2ccccc2)cc1)C(=O)CC`, for which the melting point was in the range of 82 to 84 °C.

With `CCOc1cc2c(cc1OC)C(c1ccc(C(=O)N(C(C)C)C(C)C)cc1)=N[C@@H]1CCOC[C@H]21`, the melting point was in the range of 116 to 120 °C.

The compound `COC(=O)c1c(C)cc(OC)c(C)c1O` had a melting point of 87 to 90 °C.

As for `CCCCCCCCCCCCCCCOc1ccc(C(C)=O)o1`, the melting point was 67 to 68 °C.

In turn, `CCN1C(=O)CC(=O)N(CC)C1=O` showed a melting point of 52 °C.

In turn, `CC(=O)NCC1CC1c1c(Br)ccc2nn(C)cc12` (stereo not given) had a melting point of 135 to 137 °C.

In turn, `O=C(OCN1C(=O)CN(CCN2CC(=O)N(COC(=O)c3cccs3)C(=O)C2)CC1=O)c1cccs1` had a melting point of 158 to 160 °C.

Compound `C[Si](C)(C)CCOC(=O)c1cccc2nnsc12` returned a melting point of 37 to 39 °C.

Compound `COc1cccc(-c2ccnc(Nc3cccc(OC(F)(F)C(F)F)c3)n2)c1` registered a melting point of 103 to 104 °C.

`COCCCOc1cc(CC(CC2C(OC(=O)OC(C)(C)C)CC(C(C)(C)O)C(=O)N2C(=O)OC(C)(C)C)C(C)C)ccc1OC` (stereo not given) came in with a melting point of 118 to 119 °C.

In the case of `C=CCOc1ccc2c(C)cc(=O)oc2c1C(=O)C=Cc1cccc(OC)c1`, the melting point was 61 to 63 °C.

On to `COC(=O)c1ccc(CN([C@@H](C)c2ccccc2)S(=O)(=O)c2ccc(Cl)cc2)cc1`, for which the melting point was 105 to 106 °C.

The compound `CC(=O)NC(=Cc1cccs1)C1=NC(=Cc2cccs2)C(=O)O1` yielded a melting point of 218 °C.

As to `C=CCOC(=O)C(C#N)=C1Nc2ccccc2O1`, the melting point is 181 to 183 °C.

Compound `COc1cc(NS(=O)(=O)c2ccc(Cl)cc2)c(C(=O)Cl)cc1OC` showed a melting point of 175 to 177 °C.

Consider `CCSc1cc(C)nc(SCC)c1NC(=O)CCCCCCCSc1nc2ccccc2s1`, for which the melting point lay within 94 to 96 °C.

`CCCCCCCCn1c(=O)n(CCN2CCN(c3ccccc3OC)CC2)c(=O)c2cscc21` displayed a melting point of 82 to 84 °C.

Compound `ClCc1cccc(/C=C/c2cc(-c3ccsc3)cs2)c1` came in with a melting point of 137 to 138 °C.

`COc1ccc(CCc2ccc(NC(=O)C(=O)c3cc(Cl)ccc3O)cc2)cc1OC` showed a melting point of 128 to 130 °C.

Compound `CCOCOc1cccc(C(CC#N)N2Cc3c(Cl)ccc(NC(=O)C4CC4)c3C2=O)c1` (stereo not given) showed a melting point of 200 to 202 °C.

For the compound `COc1ccc(CNc2ccccc2C(=O)Nc2ccc(F)c(C(F)(F)F)c2)cn1`, the melting point was 114 to 115 °C.

For the compound `CCCc1nc2ccnn2cc1Cc1ccc(-c2ccccc2C#N)cc1`, the melting point came to 154 °C.

In turn, `COc1ccc(C2=NN(c3ccccc3)C(c3ccc([N+](=O)[O-])cc3)C2)cc1` (stereo not given) had a melting point of 168 to 173 °C.

For the compound `CC1(C)COC(=O)N1Br`, the melting point fell in the range of 118 to 120 °C.

Compound `CC(C)(O)C(=O)c1ccc(C(O)c2ccc(C(=O)C(C)(C)O)cc2)cc1` yielded a melting point of 130 °C.

The compound `FC(F)(F)c1ccc(Oc2cc(Cl)nc(Cl)c2)c(Cl)c1` gave a melting point of 66 °C.

`CS(=O)(=O)CC(=O)N[C@H]1CC[C@H](CCN2CCC(c3cccc4c3CCO4)CC2)CC1` showed a melting point of 211 °C.

Compound `C[C@@](O)(C(=O)Nc1ccc(S(=O)(=O)c2ccc(F)cc2)cc1Cl)C(F)(F)F` showed a melting point of 131 to 133 °C.

Turning to `Cc1cncc(-c2ccc(OC3SCC(O)C(O)C3O)cn2)c1` (stereo not given), the melting point lay in the range of 165 to 166 °C.

The compound `CC(C)CC(=O)OC1c2ccccc2C(=O)N1c1ccc2ccc(Cl)nc2n1` (stereo not given) returned a melting point of 154 °C.

With `Cc1cc(S(=O)(=O)c2ccc(N)cc2)cc(N(C)C)n1`, the melting point fell in the range of 157 to 159 °C.

As to `Nc1cccc(-c2ccc(CCN3CCN(C(=O)Nc4ccc(Cl)cc4)CC3)cc2)n1`, the melting point fell in the range of 160 to 162 °C.

Compound `O=C1c2ccccc2C(=O)N1OCCCC#Cc1ccc(F)cc1` showed a melting point of 85 to 88 °C.

Consider `Cn1ncc(=O)[nH]c1=O`, for which the melting point stood at 118 °C.

As for `CSc1nc(NCc2ccc(-c3ccccn3)cc2)n2ncc(C(C)C)c2n1`, the melting point lay in the range of 136 to 138 °C.

Compound `COC(=O)c1coc(-c2ccc(NS(=O)(=O)c3sc4ccc(Cl)cc4c3C)c(S(C)(=O)=O)c2)n1` displayed a melting point of 237 to 239 °C.

Compound `COC1=C(OC)C(=O)C2=C(CCC(CCOc3ccccc3)CC2)C1=O` returned a melting point of 71 to 72 °C.

`CC(=O)N1c2ccccc2[C@H](Nc2ccccc2C(=O)O)C[C@@H]1C` (relative stereo) registered a melting point of 122 to 123 °C.

Consider `CC(=O)c1cccc(C=CC(=O)N2CCc3c([nH]c4ccccc34)C2c2ccc3c(c2)OCO3)c1` (stereo not given), for which the melting point was 191 °C.

As to `C[C@]12CCC(=O)N[C@@H]1CCc1cc(Sc3ccccc3)ccc12`, the melting point is 183 to 185 °C.

Take `CC(C)(c1ccccc1)c1ccc(O)c(-n2nc3ccccc3n2)c1`: the melting point lay within 119 to 121 °C.

Consider `CCN(CC)CCn1c2ccccc2c(=NNC(N)=S)c2ccccc21`, for which the melting point was in the range of 154 to 156 °C.

In the case of `CN(C)CCC1CCCCN1CCN(C)C(=O)N1c2ccccc2C(=O)Nc2cccnc21` (stereo not given), the melting point is 114 to 116 °C.

`COc1ccc(-c2nc(CNC(=O)c3ccc4n3Cc3ccccc3N(C(=O)c3ccc(-c5ccccc5C)c(C)c3)C4)no2)cc1` returned a melting point of 133 to 135 °C.

For the compound `COC(=O)c1c(C(F)F)nc(C(F)(F)F)c(C(=O)OC)c1CC(C)C`, the melting point lay within 36 to 37 °C.

The compound `O=C(Nc1n[nH]c2nc(Oc3ccc(F)cc3F)ncc12)OCc1ccccc1` gave a melting point of 270 to 272 °C.

`C=CCn1c(=O)c2ccccc2n2c(CCCl)nnc12` registered a melting point of 142 to 144 °C.

Turning to `C=Cc1ccc(OC(=O)C(Cl)(Cl)Cl)cc1`, the melting point lay within 37 to 39 °C.

Consider `CCCCN(CCCC)c1ccc(C=Cc2cc(C)c(C=CC3=C(C#N)C(=C(C#N)C#N)OC3(c3ccccc3)C(F)(F)F)cc2C)c(OC)c1` (stereo not given), for which the melting point was 177 to 179 °C.

`CCOC(=O)C1C2OC3COC(C)(C)OC3C(OC)C21` (stereo not given) displayed a melting point of 65 to 68 °C.

With `Clc1ccc([C@@H]2CNc3ccccc3S2)cc1`, the melting point lay within 151 to 153 °C.

The compound `COC(=O)C=C(C)NCC(O)CO` (stereo not given) came in with a melting point of 109 to 111 °C.

`C=C(c1ccc(Cl)cc1)c1ccc(NC(=O)OC(C)(C)C)c(C)c1` registered a melting point of 102 to 104 °C.

`CCOC(=O)c1ccc(C#CC(O)c2cccc3c2C(C)(C)CCS3)cc1` (stereo not given) had a melting point of 108 °C.

The compound `O=C(N[C@H](Cc1ccc(C(F)(F)F)cc1)[C@@H](O)c1ccoc1)c1ccc(F)c2ccccc12` (racemic) displayed a melting point of 206 to 207 °C.

The compound `CCCCCCCC(=O)OCCc1c(-c2ccccc2)nc(NC(C)=O)n2ncnc12` had a melting point of 69 to 70 °C.

In turn, `CCn1ncc(C(=O)c2ccc(S(C)(=O)=O)c(N3CCOC(O)C3)c2Cl)c1O` (stereo not given) came in with a melting point of 209 to 210 °C.

Compound `CCCCC(=O)CC(=O)c1ccc(C2CCC(CC)CC2)cc1` (stereo not given) gave a melting point of 90 °C.

For `CCCn1c(=O)c2c(nc(/C=C/c3ccc4c(c3)OCCO4)n2C)n(CCC)c1=O`, the melting point is 182 °C.

In turn, `CCCCCCCCCCCCCCCCCCNC(=O)c1ccc(OC(C)=O)cc1` returned a melting point of 106 °C.

Regarding `O=C(Nc1c[nH]nc1C(=O)NCCNc1ccccc1)c1ccccn1`, the melting point lay within 184 to 186 °C.

Consider `C=CCn1c(C(F)(F)F)nc2cc(-n3c(=O)cc(C(F)(F)F)n(C)c3=O)ccc21`, for which the melting point fell in the range of 185 to 187 °C.

The compound `Nc1nc2ccc(NC(=O)[C@@H]3CCCN3C(=O)[C@@H](Cc3ccccc3)NS(=O)(=O)Cc3ccccc3)cc2s1` returned a melting point of 130 to 133 °C.

In turn, `CSc1ncc(OCc2cccnc2)c(=O)[nH]1` returned a melting point of 186 to 187 °C.

`COc1ccc(C(=O)Nc2ccccc2)cc1NC(=O)CC(=O)OCc1ccccc1` came in with a melting point of 168 to 171 °C.

The compound `COc1nccc(F)c1NC(=O)OC(C)(C)C` displayed a melting point of 75 to 77 °C.

`CC(=CC(CNC(=O)c1cccnc1)=NO)C(C)[N+](=O)[O-]` (stereo not given) showed a melting point of 137 to 139 °C.
